Where two headings read alike, the source gives them in different places.
Key:
[1] = test system: Key Broadleaf Weed and Crop Species; test: Post-Emergent Test II (Table 5); assay type: in vivo; conditions: post-emergence, 336 h; for pest or weed control at 70 g/ha: application rate 70 (kg ai/ha; footnote: g ai/ha); for pest or weed control at 140 g/ha: application rate 140 (kg ai/ha; footnote: g ai/ha)
Summary of the method: (§1)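 Plants grown in a greenhouse (~15 h photoperiod, 23-29° C day) to first or second true leaf stage were sprayed post-emergence at 187 L/ha with compound in acetone/DMSO-based aqueous spray containing crop oil concentrate and surfactant, applied at a high rate plus ½× to 1/16× serial rates. Injury was scored visually 14 days later, 0-100% versus untreated plants.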

[2] = test system: Key Grass and Sedge Weeds as well as Grass Crops; test: Post-Emergent Test II (Table 6); assay type: in vivo; conditions: post-emergence, 336 h, 14 days after application; for pest or weed control at 70 g/ha: 70 g ai/ha; for pest or weed control at 140 g/ha: 140 g ai/ha
Summary of the method: as §1

[3] = Abutilon theophrasti, ABUTH: velvetleaf (Abutilon theophrasti), read-out: Visual Growth Reduction (%) 14 Days After Application ABUTH
[4] = Amaranthus retroflexus, AMARE: redroot pigweed (Amaranthus retroflexus), read-out: Visual Growth Reduction (%) 14 Days After Application AMARE
[5] = Brassica napus, BRSSS: oilseed rape, canola (Brassica napus), read-out: Visual Growth Reduction (%) 14 Days After Application BRSSS
[6] = Chenopodium album, CHEAL: lambsquarters (Chenopodium album), read-out: Visual Growth Reduction (%) 14 Days After Application CHEAL
[7] = Euphorbia heterophylla, EPHHL: wild poinsettia (Euphorbia heterophylla), read-out: Visual Growth Reduction (%) 14 Days After Application EPHHL
[8] = Helianthus annuus, HELAN: sunflower (Helianthus annuus), read-out: Visual Growth Reduction (%) 14 Days After Application HELAN
[9] = Viola tricolor, VIOTR: wild pansy (Viola tricolor), read-out: Visual Growth Reduction (%) 14 Days After Application VIOTR
[10] = CYPSS, read-out: Visual Growth Reduction (%) 14 Days After Application CYPSS
[11] = DIGSA: crabgrass (Digitaria sanguinalis), read-out: Visual Growth Reduction (%) 14 Days After Application DIGSA
[12] = ECHSS, read-out: Visual Growth Reduction (%) 14 Days After Application ECHSS
[13] = ORYSS (crop), read-out: Visual Growth Reduction (%) 14 Days After Application ORYSS
[14] = SETFA: giant foxtail (Setaria faberi), read-out: Visual Growth Reduction (%) 14 Days After Application SETFA
[15] = SORVU: grain sorghum (Sorghum vulgare), read-out: Visual Growth Reduction (%) 14 Days After Application SORVU
[16] = TRZSS (crop), read-out: Visual Growth Reduction (%) 14 Days After Application TRZSS
[17] = ZEAMX: maize, corn (Zea mays), read-out: Visual Growth Reduction (%) 14 Days After Application ZEAMX

COC(=O)c1nc(-c2ccc(OC)nc2Cl)c(F)c(N)c1Cl [Compound 88, methyl 4-amino-2′,5-dichloro-3-fluoro-6′-methoxy-[2,3′-bipyridine]-6-carboxylate]
0 to 29%: pest or weed control at 70 g/ha [1, 7] | pest or weed control at 140 g/ha [1, 7] | pest or weed control at 70 g/ha [1, 9] | pest or weed control at 140 g/ha [1, 9] | pest or weed control at 70 g/ha [2, 10] | pest or weed control at 140 g/ha [2, 10] | pest or weed control at 70 g/ha [2, 11] | pest or weed control at 140 g/ha [2, 11] | pest or weed control at 70 g/ha [2, 12] | pest or weed control at 140 g/ha [2, 12] | pest or weed control at 70 g/ha [2, 13] | pest or weed control at 140 g/ha [2, 13] | pest or weed control at 70 g/ha [2, 14] | pest or weed control at 70 g/ha [2, 15] | pest or weed control at 140 g/ha [2, 15] | pest or weed control at 70 g/ha [2, 16] | pest or weed control at 140 g/ha [2, 16] | pest or weed control at 70 g/ha [2, 17] | pest or weed control at 140 g/ha [2, 17]
75 to 84%: pest or weed control at 70 g/ha [1, 3] | pest or weed control at 70 g/ha [1, 8]
85 to 94%: pest or weed control at 70 g/ha [1, 4] | pest or weed control at 70 g/ha [1, 5] | pest or weed control at 140 g/ha [1, 5] | pest or weed control at 140 g/ha [1, 8]
164 to 165 °C: melting point
95 to 100%: pest or weed control at 140 g/ha [1, 3] | pest or weed control at 70 g/ha [1, 6] | pest or weed control at 140 g/ha [1, 6]
45 to 59%: pest or weed control at 140 g/ha [2, 14]

Cc1c(F)c(Cl)cc(F)c1-c1cc(N)c(Cl)c(C(=O)O)n1 [Compound 92, 4-amino-3-chloro-6-(4-chloro-3,6-difluoro-2-methylphenyl)picolinic acid]
75 to 84%: pest or weed control at 140 g/ha [1, 9]
60 to 74%: pest or weed control at 70 g/ha [1, 9] | pest or weed control at 140 g/ha [2, 16]
0 to 29%: pest or weed control at 70 g/ha [1, 7] | pest or weed control at 70 g/ha [2, 10] | pest or weed control at 140 g/ha [2, 10] | pest or weed control at 70 g/ha [2, 11] | pest or weed control at 140 g/ha [2, 11] | pest or weed control at 70 g/ha [2, 12] | pest or weed control at 140 g/ha [2, 12] | pest or weed control at 70 g/ha [2, 13] | pest or weed control at 140 g/ha [2, 13] | pest or weed control at 70 g/ha [2, 14] | pest or weed control at 140 g/ha [2, 14] | pest or weed control at 70 g/ha [2, 15] | pest or weed control at 140 g/ha [2, 15] | pest or weed control at 70 g/ha [2, 17] | pest or weed control at 140 g/ha [2, 17]
95 to 100%: pest or weed control at 70 g/ha [1, 3] | pest or weed control at 140 g/ha [1, 3] | pest or weed control at 70 g/ha [1, 4] | pest or weed control at 140 g/ha [1, 4] | pest or weed control at 70 g/ha [1, 5] | pest or weed control at 140 g/ha [1, 5] | pest or weed control at 70 g/ha [1, 6] | pest or weed control at 140 g/ha [1, 6] | pest or weed control at 70 g/ha [1, 8] | pest or weed control at 140 g/ha [1, 8]
30 to 44%: pest or weed control at 140 g/ha [1, 7] | pest or weed control at 70 g/ha [2, 16]
160 to 162 °C: melting point

COC(=O)c1nc(-c2ccc(C(F)(F)F)nc2F)cc(N)c1Cl [Compound 74]
30 to 44%: pest or weed control at 70 g/ha [1, 5] | pest or weed control at 140 g/ha [2, 17]
0 to 29%: pest or weed control at 70 g/ha [1, 7] | pest or weed control at 140 g/ha [1, 7] | pest or weed control at 70 g/ha [1, 9] | pest or weed control at 140 g/ha [1, 9] | pest or weed control at 70 g/ha [2, 10] | pest or weed control at 140 g/ha [2, 10] | pest or weed control at 70 g/ha [2, 11] | pest or weed control at 140 g/ha [2, 11] | pest or weed control at 70 g/ha [2, 12] | pest or weed control at 70 g/ha [2, 13] | pest or weed control at 140 g/ha [2, 13] | pest or weed control at 70 g/ha [2, 14] | pest or weed control at 140 g/ha [2, 14] | pest or weed control at 70 g/ha [2, 15] | pest or weed control at 70 g/ha [2, 16] | pest or weed control at 140 g/ha [2, 16] | pest or weed control at 70 g/ha [2, 17]
45 to 59%: pest or weed control at 140 g/ha [1, 5] | pest or weed control at 70 g/ha [1, 8] | pest or weed control at 140 g/ha [2, 12] | pest or weed control at 140 g/ha [2, 15]
138 to 141 °C: melting point
95 to 100%: pest or weed control at 140 g/ha [1, 3]
75 to 84%: pest or weed control at 70 g/ha [1, 6]
85 to 94%: pest or weed control at 70 g/ha [1, 3] | pest or weed control at 140 g/ha [1, 6]
60 to 74%: pest or weed control at 140 g/ha [1, 8]
